Laboratory results reported in patent publication US8476197B2, “Aminopropenoates as fungicides” (priority 2009, dated 2013).
Marks after values point to notes of the source that are not given here.

Details: pH 2.3
In the case of `CCOC(=O)C(C#N)=C(NC(C)C(F)(F)F)c1cccnc1OC` (racemic) [Compound 807], the “Log P” value is reported as 3.05. With `CCCCCCC(C)NC(=C(C#N)C(=O)OCC)c1cccnc1Cl` (racemic) [Compound 819] the “Log P” value was 4.53. In the case of `CNC(=O)C(C#N)=C(NC(C)C1CC1)c1cccnc1Cl` (racemic) [Compound 908], the “Log P” value is reported as 2.2^[c]; 2.2^[b].

Same assay, conditions: pH 2.7
For `CCOC(=O)C(C)NC(=C(C#N)C(=O)OC)c1sc(C)nc1C(F)(F)F` (racemic) [Compound 664], the “Log P” value was 2.96^[a]. For `COC(=O)C(C#N)=C(NC(C(=O)OC)C(C)C)c1sc(C)nc1C(F)(F)F` (racemic) [Compound 666], the “Log P” value was 3.29^[a]. With `COC(=O)C(C#N)=C(NC(C)C(N)=O)c1sc(C)nc1C(F)(F)F` (racemic) [Compound 668] the “Log P” value was 1.78^[a]. For `CCOC(=O)C(C#N)=C(NC(C)C(=O)Nc1ccc2ccccc2c1)c1sccc1Br` (racemic) [Compound 669], the “Log P” value was 3.89^[a]. With `CCOC(=O)C(C#N)=C(NC(C)COc1c(C)cccc1C)c1sccc1Br` (racemic) [Compound 670] the “Log P” value was 4.86^[a]. For `CCOC(=O)C(C#N)=C(NC(C)COC)c1sccc1Br` (racemic) [Compound 671], the “Log P” value was 3.17^[a]. In the case of `CCOC(=O)C(C#N)=C(NC(C)C(=O)OCC)c1sccc1Br` (racemic) [Compound 672], the “Log P” value is reported as 3.33^[a]. For `CCOC(=O)C(C#N)=C(NC(C(=O)OC)C(C)C)c1cn(C)nc1C(F)F` (racemic) [Compound 674], the “Log P” value was 2.84^[a]. For `CCOC(=O)C(C#N)=C(NC(C)C(=O)Nc1ccc2ccccc2c1)c1sc(C)nc1C(F)(F)F` (racemic) [Compound 676], the “Log P” value was 3.99^[a]. For `CCOC(=O)C(C#N)=C(NC(C)COc1c(C)cccc1C)c1sc(C)nc1C(F)(F)F` (racemic) [Compound 677], the “Log P” value was 4.7^[a]. With `CCOC(=O)C(C#N)=C(NC(C)COC)c1sc(C)nc1C(F)(F)F` (racemic) [Compound 678] the “Log P” value was 3.11^[a]. In the case of `CCOC(=O)C(C#N)=C(NC(C)C(=O)OCC)c1sc(C)nc1C(F)(F)F` (racemic) [Compound 679], the “Log P” value is reported as 3.29^[a]. In the case of `CCOC(=O)C(C#N)=C(NC(C(=O)OC)C(C)C)c1sc(C)nc1C(F)(F)F` (racemic) [Compound 681], the “Log P” value is reported as 3.64^[a]. For `CCOC(=O)C(C#N)=C(NC(C)CC(C)C)c1cc(C)oc1C` (racemic) [Compound 779], the “Log P” value was 4.35^[a]. For `CCOC(=O)C(C#N)=C(NC(C)CC(C)C)c1cn(C)nc1C(F)F` (racemic) [Compound 780], the “Log P” value was 3.46^[a]. With `CCOC(=O)C(C#N)=C(NC(C)CC(C)C)c1sccc1C(F)(F)F` (racemic) [Compound 781] the “Log P” value was 4.54^[a]. With `COC(=O)C(C#N)=C(NC(C)CC(C)C)c1sc(C)nc1C(F)(F)F` (racemic) [Compound 782] the “Log P” value was 3.9^[a]. For `CCOC(=O)C(C#N)=C(NC(C)CC(C)C)c1sccc1Br` (racemic) [Compound 783], the “Log P” value was 4.46^[a]. For `CCOC(=O)C(C#N)=C(NC(C)CC(C)C)c1sc(C)nc1C(F)(F)F` (racemic) [Compound 784], the “Log P” value was 4.29^[a]. For `CCOC(=O)C(C#N)=C(NC(C)CC(C)C)c1ccsc1Br` (racemic) [Compound 785], the “Log P” value was 4.41^[a]. In the case of `CCOC(=O)C(C#N)=C(NC(C)C(F)(F)F)c1cn(C)nc1OC` (racemic) [Compound 808], the “Log P” value is reported as 2.82^[a]. In the case of `CCOC(=O)C(C#N)=C(NC(C)C(F)(F)F)c1sc(Cl)nc1Cl` (racemic) [Compound 809], the “Log P” value is reported as 3.75^[a]. With `CCOC(=O)C(C#N)=C(NC(C)C(F)(F)F)c1cc(Cl)sc1Cl` (racemic) [Compound 810] the “Log P” value was 4.11^[a]. For `CCOC(=O)C(C#N)=C(NC(C)C(F)(F)F)c1cn(C)cc1C(F)(F)F` (racemic) [Compound 812], the “Log P” value was 3.64^[a]. With `CCCCCCC(C)NC(=C(C#N)C(=O)OCC)c1c(C)nn(C)c1F` (racemic) [Compound 813] the “Log P” value was 4.51^[a]. In the case of `CCCCCCC(C)NC(=C(C#N)C(=O)OCC)c1sccc1Br` (racemic) [Compound 814], the “Log P” value is reported as 5.48^[a]. For `CCCCCCC(C)NC(=C(C#N)C(=O)OCC)c1sccc1C(F)(F)F` (racemic) [Compound 815], the “Log P” value was 5.48^[a]. In the case of `CCCCCCC(C)NC(=C(C#N)C(=O)OC)c1sc(C)nc1C(F)(F)F` (racemic) [Compound 816], the “Log P” value is reported as 4.86^[a]. For `CCCCCCC(C)NC(=C(C#N)C(=O)OCC)c1cn(C)nc1C(F)F` (racemic) [Compound 817], the “Log P” value was 4.36^[a]. In the case of `CCCCCCC(C)NC(=C(C#N)C(=O)OCC)c1sc(C)nc1C(F)(F)F` (racemic) [Compound 818], the “Log P” value is reported as 5.22^[a]. For `CCCCCCC(C)NC(=C(C#N)C(=O)OCC)c1ccsc1Br` (racemic) [Compound 820], the “Log P” value was 5.41^[a]. With `CCOC(=O)C(C#N)=C(NC(C)CC)c1nc(Cl)ccc1Cl` (racemic) [Compound 837] the “Log P” value was 3.67^[a]. With `CCOC(=O)C(C#N)=C(NC(C)CC)c1cnc(Cl)cc1Cl` (racemic) [Compound 838] the “Log P” value was 3.64^[a]. In the case of `CCOC(=O)C(C#N)=C(NC(C)CC)c1ncc(Cl)cc1Cl` (racemic) [Compound 839], the “Log P” value is reported as 3.78^[a]. With `CCOC(=O)C(C#N)=C(NC(C)CC)c1cccnc1C(F)(F)F` (racemic) [Compound 840] the “Log P” value was 3.27^[a]. In the case of `CCOC(=O)C(C#N)=C(NC(C)CC)c1nc(SC)ncc1Br` (racemic) [Compound 841], the “Log P” value is reported as 3.89^[a]. In the case of `CCOC(=O)C(C#N)=C(NC(C)CC)c1cccnc1C(F)F` (racemic) [Compound 842], the “Log P” value is reported as 2.87^[a]. With `CCOC(=O)C(C#N)=C(NC(C)CC)c1cnccc1C(F)(F)F` (racemic) [Compound 843] the “Log P” value was 3.17^[a]. With `CCCCCC(C)NC(=C(C#N)C(=O)OCC)c1sccc1Br` (racemic) [Compound 846] the “Log P” value was 5.03^[a]. With `CCCCCC(C)NC(=C(C#N)C(=O)OCC)c1sccc1C(F)(F)F` (racemic) [Compound 849] the “Log P” value was 5.05^[a]. In the case of `CCCCCC(C)NC(=C(C#N)C(=O)OC)c1sc(C)nc1C(F)(F)F` (racemic) [Compound 852], the “Log P” value is reported as 4.41^[a]. For `CCCCCC(C)NC(=C(C#N)C(=O)OCC)c1cn(C)nc1C(F)F` (racemic) [Compound 855], the “Log P” value was 3.94^[a]. In the case of `CCCCCC(C)NC(=C(C#N)C(=O)OCC)c1sc(C)nc1C(F)(F)F` (racemic) [Compound 858], the “Log P” value is reported as 4.81^[a]. In the case of `CCOC(=O)C(C#N)=C(NC(C)C1CC1)c1cn(C)nc1C(F)(F)F` (racemic) [Compound 894], the “Log P” value is reported as 3.29^[a]. In the case of `CCOC(=O)C(C#N)=C(NC(C)C1CC1)c1cn(C)nc1C(C)F` (racemic) [Compound 895], the “Log P” value is reported as 2.84^[a]. In the case of `CCOC(=O)C(C#N)=C(NC(C)C1CC1)c1cc(Cl)ncc1Cl` (racemic) [Compound 896], the “Log P” value is reported as 3.69^[a]. In the case of `CCOC(=O)C(C#N)=C(NC(C)C1CC1)c1cnccc1C(F)(F)F` (racemic) [Compound 897], the “Log P” value is reported as 3.2^[a]. In the case of `CCOC(=O)C(C#N)=C(NC(C)C1CC1)c1ccncc1Cl` (racemic) [Compound 898], the “Log P” value is reported as 3.03^[a]. With `CCOC(=O)C(C#N)=C(NC(C)C1CC1)c1cccnc1C(F)F` (racemic) [Compound 899] the “Log P” value was 2.9^[a]. For `CCOC(=O)C(C#N)=C(NC(C)C1CC1)c1cc(Cl)cc(Cl)n1` (racemic) [Compound 900], the “Log P” value was 3.92^[a]. With `CCOC(=O)C(C#N)=C(NC(C)C1CC1)c1cn(C)cc1C(F)(F)F` (racemic) [Compound 901] the “Log P” value was 3.56^[a]. With `CCOC(=O)C(C#N)=C(NC(C)C1CC1)c1ccnc(Cl)c1Cl` (racemic) [Compound 902] the “Log P” value was 3.61^[a]. For `CCOC(=O)C(C#N)=C(NC(C)C1CC1)c1ccncc1Br` (racemic) [Compound 903], the “Log P” value was 3^[a]. For `CCOC(=O)C(C#N)=C(NC(C)C1CC1)c1ccncc1F` (racemic) [Compound 904], the “Log P” value was 2.8^[a]. In the case of `CCOC(=O)C(C#N)=C(NC(C)C1CC1)c1ccncc1C(F)(F)F` (racemic) [Compound 905], the “Log P” value is reported as 3.2^[a]. In the case of `CCOC(=O)C(C#N)=C(NC(C)C(C)(C)C)c1cn(C)nc1C(F)F` (racemic) [Compound 918], the “Log P” value is reported as 3.37^[a]. With `CCOC(=O)C(C#N)=C(NC(C)C(C)(C)C)c1sccc1C(F)(F)F` (racemic) [Compound 919] the “Log P” value was 4.46^[a]. With `COC(=O)C(C#N)=C(NC(C)C(C)(C)C)c1sc(C)nc1C(F)(F)F` (racemic) [Compound 920] the “Log P” value was 3.83^[a]. With `CCOC(=O)C(C#N)=C(NC(C)C(C)(C)C)c1sccc1Br` (racemic) [Compound 921] the “Log P” value was 4.41^[a]. With `CCOC(=O)C(C#N)=C(NC(C)C(C)(C)C)c1sc(C)nc1C(F)(F)F` (racemic) [Compound 922] the “Log P” value was 4.21^[a]. In the case of `CCOC(=O)C(C#N)=C(NC(C)C(C)(C)C)c1ccsc1Br` (racemic) [Compound 923], the “Log P” value is reported as 4.36^[a]. In the case of `CCOC(=O)C(C#N)=C(NC(C)C(C)C)c1cn(C)cc1C(F)(F)F` (racemic) [Compound 987], the “Log P” value is reported as 3.84^[a]. For `CCOC(=O)C(C#N)=C(NC(C)C(C)C)c1c(C(F)F)nn(C)c1F` (racemic) [Compound 1000], the “Log P” value was 3.53^[a]. With `CCOC(=O)C(C#N)=C(NC(C)C(C)C)c1c(C(F)(F)F)nn(C)c1Cl` (racemic) [Compound 1001] the “Log P” value was 4.06^[a]. For `CCOC(=O)C(C#N)=C(NC(C)C(C)C)c1cn(C)nc1C(C)(F)F` (racemic) [Compound 1002], the “Log P” value was 3.39^[a]. With `C=CCCCC(C=C)NC(=C(C#N)C(=O)OCC)c1c(C)nn(C)c1Cl` (racemic) [Compound 1013] the “Log P” value was 4.04^[a]. For `C=CCCCC(C=C)NC(=C(C#N)C(=O)OCC)c1sccc1C(F)(F)F` (racemic) [Compound 1014], the “Log P” value was 4.7^[a]. In the case of `C=CCCCC(C=C)NC(=C(C#N)C(=O)OCC)c1ncc(C(F)(F)F)cc1Cl` (racemic) [Compound 1015], the “Log P” value is reported as 4.82^[a]. For `C=CCCCC(C=C)NC(=C(C#N)C(=O)OCC)c1cn(C)nc1C(F)F` (racemic) [Compound 1016], the “Log P” value was 3.73^[a]. In the case of `C=CCCCC(C=C)NC(=C(C#N)C(=O)OCC)c1sccc1Br` (racemic) [Compound 1017], the “Log P” value is reported as 4.67^[a].

Same assay, conditions: pH 7.5
For `CCOC(=O)C(C#N)=C(NC(C)CC(C)C)c1cccnc1Cl` (racemic) [Compound 778], the “Log P” value was 3.62. For `CCOC(=O)C(C#N)=C(NC(C)C(F)(F)F)c1cccnc1OC` (racemic) [Compound 807], the “Log P” value was 3.04. In the case of `CCCCCCC(C)NC(=C(C#N)C(=O)OCC)c1cccnc1Cl` (racemic) [Compound 819], the “Log P” value is reported as 4.55. For `CCCCCC(C)NC(=C(C#N)C(=O)OCC)c1cccnc1Cl` (racemic) [Compound 859], the “Log P” value was 4.1. With `CNC(=O)C(C#N)=C(NC(C)C1CC1)c1cccnc1Cl` (racemic) [Compound 908] the “Log P” value was 2.2^[c]; 2.2^[b].
